Common to all, as to test: growth of human tumour cells (NCI), 48 h
In experiment [1] the test system is SK-MEL-5 melanoma.
Experiment [2] deals with DU-145 prostate.
Experiment [3] has as its system LOX IMVI melanoma.
Experiment [4] concerns EKVX NSCLC.
In experiment [5] the test system is NCI-H23 lung.
Experiment [6] deals with SR leukemia.
In experiment [7] the test system is SNB-19 CNS.
For experiment [8], the system named is M14 melanoma.
The test system of experiment [9] is A498 renal.
The test system of experiment [10] is HCT-116 colon.

The structures appear in SMILES notation. Several values for one entry are separate records, joined by “and”; a condition that tells them apart may be missing. Equal values may be shown once.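 Following 48 hours of exposure in 96-well plates, responses at five concentrations were used to interpolate endpoints linearly. GI50 is the concentration that inhibits growth by half. The concentration for full growth arrest is given as TGI.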 Where a SMILES comes first, the peptide text is derived from it. The star is where a group is joined. Cbz = O=C(OCc1ccccc1)*; Boc = CC(C)(C)OC(=O)*; tBu = CC(C)(C)* Some results are limits rather than exact numbers.

`COC(=O)C1C(=O)C=CN([C@H](C)c2ccccc2)[C@@H]1Cc1ccc(OC)c(OCc2ccccc2)c1I` (stereo partly drawn): the TGI in experiment [1] was 27.4 µM; in [2] it was 42.6 µM; in [3], 27.8 µM; in experiment [4], over 100 µM; in experiment [5], 40.3 µM; in [6] it was over 100 µM. In addition, the TGI is 86.4 µM in experiment [7], 30.2 µM in [8], 34.8 µM in [9] and 24.3 µM in [10].
As to `Cc1nn(C(=O)Cc2ccccc2)c2c1C(c1ccc(N(C)C)cc1)SC(N)=N2` (stereo not drawn), the TGI in experiment [1], in experiment [2], in experiment [3], in experiment [4], in [5] and in experiment [6] was over 100 µM throughout. For the same molecule, the TGI in experiment [7], in experiment [8], in experiment [9] and in experiment [10] was over 100 µM throughout.
For the molecule `NC(N)=N/N=C/c1c(-c2cccc([N+](=O)[O-])c2)nc2n1CCS2`, the TGI in experiment [1] stood at 32.5 µM; in experiment [2], 36.4 µM; in experiment [3], 73.1 µM; in [4] it was 54.5 µM; in experiment [5], 58.9 µM; in experiment [6], 34.9 µM. Besides, the TGI in experiment [7] was 32.1 µM; in experiment [8], 60 µM; in experiment [9], 32.9 µM; in [10], over 100 µM.
Turning to `NCCCCC(N)C(=O)NCCNc1ccc(NCCNC(=O)C(N)CCCCN)c2c1C(=O)c1ccccc1C2=O` (stereo not drawn), the TGI in experiment [1], in experiment [2], in experiment [3], in experiment [4], in experiment [5] and in experiment [6] was over 100 µM in each case. In addition, the TGI in experiment [7], in experiment [8], in [9] and in experiment [10] was over 100 µM each time.
Take `CC(=O)OCCOCn1cnc2c(Cl)nc(Cl)nc21`: the TGI stood at 33 µM in [1]; 36.5 µM in [2]; 15.8 µM in experiment [3]; 7.83 µM in [4]; 36.1 µM in [5]; 16.1 µM in experiment [6]. Further, the TGI was over 100 µM in experiment [7], 37.1 µM in experiment [8], 91.2 µM in [9] and 32 µM in experiment [10].
With `COc1cc2c(cc1OC)CCc1cc(OC)c(OC)cc1CC2`, the TGI in experiment [1], in experiment [2], in experiment [3], in [4], in experiment [5] and in experiment [6] was over 100 µM in each case. Moreover, the TGI in experiment [7], in [8], in [9] and in experiment [10] was over 100 µM in each case.
For `O=C1N[C@@H](c2c[nH]c3cc(Br)ccc23)C(=O)N[C@H]1c1c[nH]c2cc(Br)ccc12`, the TGI in [1], in experiment [2], in experiment [3], in experiment [4], in experiment [5] and in experiment [6] was over 100 µM in each case. Besides, the TGI in experiment [7], in experiment [8], in experiment [9] and in experiment [10] was over 100 µM each time.
Consider `CC(OC(C)(C)C)C(NC(=O)C(CCCCNC(=O)OC(C)(C)C)NC(=O)C(Cc1c[nH]c2ccccc12)NC(=O)C(Cc1ccccc1)NC(=O)OCc1ccccc1)C(=O)NC(Cc1ccccc1)C(=O)O` (stereo not drawn) (Cbz-FWK(Boc)T(tBu)F-OH; configuration not given here), for which the TGI in experiment [1] was 33.9 µM; in experiment [2], over 100 µM; in [3], over 100 µM; in experiment [4] it was over 100 µM; in [5] it was over 100 µM; in experiment [6], over 100 µM. Further, the TGI in [7] is 52.8 µM; in [8], over 100 µM; in experiment [9], over 100 µM; in experiment [10], over 100 µM.
`O=c1oc2cc(O)ccc2c(O)c1C(c1ccccc1F)c1c(O)c2ccc(O)cc2oc1=O`: the TGI in experiment [1], in experiment [2], in experiment [3], in experiment [4], in experiment [5] and in experiment [6] was over 100 µM throughout. Further, the TGI in experiment [7], in [8], in [9] and in [10] was over 100 µM each time.
Take `c1ccc2c(c1)nc1n2CNC1`: the TGI in experiment [1], in [2], in experiment [3], in [4], in [5] and in experiment [6] was over 100 µM each time. The TGI in experiment [7], in experiment [8], in experiment [9] and in experiment [10] was over 100 µM each time.
Regarding `Cc1ccc(/C=C2\CCC/C(=C\c3ccc(O)c(CN4CCCCC4)c3)C2=O)cc1`, the TGI was 19.1 µM in [1]; 16.6 µM in experiment [2]; 10.3 µM in [3]; 27.8 µM in experiment [4]; 18.3 µM in experiment [5]; 8.62 µM in experiment [6]. Also, the TGI is 36.5 µM in experiment [7], over 37.7 µM in [8], 13.9 µM in experiment [9] and 7.65 µM in experiment [10].
Consider `CCc1c(C)c(C#N)c(=S)n(C2OC(COC(C)=O)C(OC(C)=O)C(OC(C)=O)C2OC(C)=O)c1C` (stereo not drawn), for which the TGI in experiment [1], in experiment [2], in [3], in experiment [4], in experiment [5] and in experiment [6] was over 100 µM in each case. In addition, the TGI in [7] was > 100 µM and 93 µM; in experiment [8], over 100 µM; in experiment [9] it was > 100 µM and 92.4 µM; in experiment [10], > 100 µM and 45.5 µM. Moreover, the GI50 in experiment [7] is > 100 µM and 21.5 µM; in experiment [9] it was > 100 µM and 30.2 µM; in experiment [10], > 100 µM and 21.7 µM.
On to `CC(=O)OC1(C)C=CC(=O)C=C1`, for which the TGI is over 100 µM in experiment [1]; over 100 µM in experiment [2]; over 100 µM in experiment [3]; over 100 µM in [4]; 75.2 µM in [5]; over 100 µM in [6]. Besides, the TGI in experiment [7] is over 100 µM; in experiment [8], over 100 µM; in experiment [9], 84 µM; in experiment [10], over 100 µM.
`CN1C2CCC1CC(CCNC(c1ccccc1)c1ccccc1)C2` (stereo not drawn): the TGI in experiment [1] is 25.5 µM; in experiment [2], over 100 µM; in experiment [3] it was 59.8 µM; in experiment [4], over 100 µM; in experiment [5], over 100 µM; in experiment [6], 40.3 µM. Also, the TGI in experiment [7] was over 100 µM; in [8], 24.9 µM; in experiment [9] it was 60.5 µM; in experiment [10] it was over 100 µM.
On to `CN(/N=C/c1ccc(OCc2cccc(COc3ccc(C=O)cc3)n2)cc1)c1cnn(-c2ccc(Cl)cc2Cl)c(=O)c1Cl`, for which the TGI in experiment [1], in [2], in experiment [3], in experiment [4], in [5] and in experiment [6] was over 100 µM throughout. The TGI in experiment [7], in experiment [8], in experiment [9] and in experiment [10] was over 100 µM each time.
As to `COC(=O)CCc1cc(O)c2c(c1)C(C(=O)OC)C(c1ccc(O)c(O)c1)O2` (stereo not drawn), the TGI in [1] was 20.4 µM; in [2], over 83 µM; in experiment [3] it was over 100 µM; in experiment [4] it was over 100 µM; in experiment [5], over 100 µM; in experiment [6], over 25.5 µM. For the same molecule, the TGI in experiment [7] was over 100 µM; in [8], over 100 µM; in experiment [9], over 84.5 µM; in [10] it was over 100 µM.
`CC(C)(C)C1=CC(=C(c2ccc(-c3c4nc(c(-c5ccc(C(=C6C=C(C(C)(C)C)C(=O)C(C(C)(C)C)=C6)c6cc(C(C)(C)C)c(O)c(C(C)(C)C)c6)cc5)c5ccc([nH]5)c(-c5ccc(C(=C6C=C(C(C)(C)C)C(=O)C(C(C)(C)C)=C6)c6cc(C(C)(C)C)c(O)c(C(C)(C)C)c6)cc5)c5nc(c(-c6ccc(C(=C7C=C(C(C)(C)C)C(=O)C(C(C)(C)C)=C7)c7cc(C(C)(C)C)c(O)c(C(C)(C)C)c7)cc6)c6ccc3[nH]6)C=C5)C=C4)cc2)c2cc(C(C)(C)C)c(O)c(C(C)(C)C)c2)C=C(C(C)(C)C)C1=O`: the TGI in experiment [1], in [2], in [3], in experiment [4], in experiment [5] and in experiment [6] was over 100 µM each time. For the same molecule, the TGI in experiment [7], in experiment [8], in experiment [9] and in [10] was over 100 µM each time.
Take `CC(=O)N[C@@H](Cc1ccc(O)cn1)C(=O)NCc1cccc(Cl)c1`: the TGI in experiment [1], in [2], in experiment [3], in experiment [4], in [5] and in experiment [6] was over 100 µM throughout. Further, the TGI in experiment [7], in experiment [8], in experiment [9] and in experiment [10] was over 100 µM in each case.
Regarding `O=S1(=O)N(CCNc2nccc(-c3c(-c4cccc(O)c4)nc4sccn34)n2)CCN1Cc1ccccc1`, the GI50 in experiment [1] is 3.04 µM; in experiment [2], 8.1 µM; in experiment [3] it was 2.57 µM; in experiment [4], 26.8 µM; in experiment [5], 7.19 µM; in experiment [6], 9.76 µM. In addition, the GI50 in experiment [7] was 36.4 µM; in experiment [8], 0.461 µM; in experiment [9], 1.78 µM; in [10], 5.56 µM. The TGI in experiment [1] was 9.79 µM; in [2], 26.1 µM; in experiment [3], 16.2 µM; in [4] it was over 50 µM; in experiment [5], 27.7 µM; in experiment [6], over 50 µM. In addition, the TGI in [7] is over 50 µM; in experiment [8], 27.7 µM; in experiment [9], 4.35 µM; in experiment [10], 19.4 µM.
Take `CC1=CC(=O)N(n2c(Cc3ccccc3)n[nH]c2=O)C1=O`: the TGI in [1], in experiment [2], in [3], in experiment [4], in experiment [5] and in [6] was over 100 µM in each case. The TGI in experiment [7], in experiment [8], in experiment [9] and in experiment [10] was over 100 µM in each case.
In the case of `CNC(=O)N1CN(c2ccccc2)C2(CCN(CCCC3(c4ccc(F)cc4)OCCO3)CC2)C1=O`, the TGI in experiment [1], in experiment [2], in experiment [3], in [4], in experiment [5] and in experiment [6] was over 100 µM in each case. The TGI in experiment [7], in experiment [8], in experiment [9] and in [10] was over 100 µM each time.
In the case of `c1csc(-c2cc(-c3cccs3)c(-c3ccsc3)s2)c1`, the TGI in experiment [1], in [2], in [3], in experiment [4], in [5] and in experiment [6] was over 100 µM each time. The TGI in [7], in experiment [8], in [9] and in experiment [10] was over 100 µM each time.
With `CC(=NNC(=S)Nc1ccc(C)cc1)c1cccc(C(C)=NNC(=S)Nc2ccc(C)cc2)n1`, the TGI in experiment [1] is 38.7 µM; in [2], over 100 µM; in experiment [3], 91.7 µM; in experiment [4], over 100 µM; in [5], over 100 µM; in [6], 27.1 µM. For the same molecule, the TGI in [7] is over 100 µM; in experiment [8], 47.7 µM; in [9] it was 80.9 µM; in experiment [10], 45.3 µM.
Turning to `Cc1ccc(NC(=S)N/N=C(/c2ccccc2)c2ccccn2)cc1`, the TGI was 5.08 µM in [1]; 18.8 µM in experiment [2]; 14.9 µM in [3]; 12.9 µM in [4]; 26.7 µM in [5]; over 20.5 µM in experiment [6]. In addition, the TGI in experiment [7] was determined as 22.2 µM; in experiment [8], 2.21 µM; in [9] it was 11.2 µM; in experiment [10], 14 µM.

The record behind these values is PubChem BioAssay (NCI).
